Assay results published in patent US6737383B1, “Herbicidal oxadiazolidines” (priority 1999, dated 2004).

Experiments:
[1] = system: sugar beet; experiment: Test B pre/postemergence sugar beet; format: in vivo, Beta vulgaris
Method in brief: (§1)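 Herbicidal effect was estimated by eye on a ten-point control scale after plants spent twelve to sixteen days in a greenhouse following soil or foliar treatment. Foliar sprays targeted plants at one to four leaves; all doses were formulated in a non-phytotoxic solvent with surfactant.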

[2] = system: purple nutsedge; experiment: Test B pre/postemergence purple nutsedge; format: in vivo, Cyperus rotundus
Method in brief: as §1

[3] = system: cocklebur; experiment: Test B pre/postemergence cocklebur; format: in vivo, Xanthium strumarium
Method in brief: as §1

[4] = system: giant foxtail; experiment: Test B pre/postemergence giant foxtail; format: in vivo, Setaria faberii
Method in brief: as §1

[5] = system: morningglory; experiment: Test B pre/postemergence morningglory; format: in vivo, Ipomoea hederacea
Method in brief: as §1

[6] = system: blackgrass; experiment: Test B pre/postemergence blackgrass; format: in vivo, Alopecurus myosuroides
Method in brief: as §1

[7] = system: velvetleaf; experiment: Test B pre/postemergence velvetleaf; format: in vivo, Abutilon theophrasti
Method in brief: as §1

[8] = system: soybean; experiment: Test B pre/postemergence soybean; format: in vivo, Glycine max
Method in brief: as §1

[9] = system: corn; experiment: Test B pre/postemergence corn; format: in vivo, Zea mays
Method in brief: as §1

[10] = system: rape; experiment: Test B pre/postemergence rape; format: in vivo, Brassica napus
Method in brief: as §1

[11] = system: crabgrass; experiment: Test B pre/postemergence crabgrass; format: in vivo, Digitaria sanguinalis
Method in brief: as §1

[12] = system: surinam grass; experiment: Test B pre/postemergence surinam grass; format: in vivo, Brachiaria decumbens
Method in brief: as §1

[13] = system: wheat; experiment: Test B pre/postemergence wheat; format: in vivo, Triticum aestivum
Method in brief: as §1

[14] = system: pigweed; experiment: Test B pre/postemergence pigweed; format: in vivo, Amaranthus retroflexus
Method in brief: as §1

[15] = system: wild oat; experiment: Test B pre/postemergence wild oat; format: in vivo, Avena fatua
Method in brief: as §1

[16] = system: bedstraw; experiment: Test B pre/postemergence bedstraw; format: in vivo, Galium aparine; details: Preemergence
Method in brief: as §1

[17] = Postemergence, Rate 62 g/ha, scale 0 to 10, 0 is no effect, 10 is complete control
[18] = Preemergence, Rate 62 g/ha, scale of 0 to 10 where 0 is no effect and 10 is complete control
[19] = Preemergence, Rate 125 g/ha, scale of 0 to 10 where 0 is no effect and 10 is complete control
[20] = Preemergence, Rate 250 g/ha, scale 0 to 10 (0 no effect, 10 complete control)
[21] = Preemergence, Rate 500 g/ha, scale of 0 to 10 where 0 is no effect and 10 is complete control
[22] = Rate 500 g/ha, Postemergence, scale 0 to 10, 0 is no effect, 10 is complete control
[23] = Postemergence, Rate 125 g/ha, scale of 0 to 10 where 0 is no effect and 10 is complete control
[24] = Postemergence, Rate 250 g/ha, scale of 0 to 10, 0 is no effect, 10 is complete control

C#CC(C=C(C)C)n1c(=O)on(C(=O)N(c2ccccc2)C(C)C)c1=O (centres unmarked) [Compound 652]
9: Giant foxtail plant response rating [4, 19] | Plant response rating, Giant foxtail [4, 20] | Plant response rating, Giant foxtail [4, 21] | Plant response rating, Crabgrass [11, 21]
1: Plant response rating, Velvetleaf [7, 21]
5: Morningglory plant response rating [5, 24]
7: Morningglory plant response rating [5, 22]
0: Plant response rating, Sugarbeets [1, 17] | Sugarbeets plant response rating [1, 18] | Sugarbeets plant response rating [1, 19] | Plant response rating, Sugarbeets [1, 20] | Plant response rating, Sugarbeets [1, 21] | Nutsedge plant response rating [2, 23] | Nutsedge plant response rating [2, 18] | Nutsedge plant response rating [2, 19] | Plant response rating, Nutsedge [2, 20] | Nutsedge plant response rating [2, 22] | Plant response rating, Cocklebur [3, 17] | Cocklebur plant response rating [3, 23] | Cocklebur plant response rating [3, 24] | Cocklebur plant response rating [3, 18] | Cocklebur plant response rating [3, 19] | Plant response rating, Cocklebur [3, 20] | Cocklebur plant response rating [3, 22] | Plant response rating, Giant foxtail [4, 17] | Morningglory plant response rating [5, 18] | Morningglory plant response rating [5, 19] | Plant response rating, Morningglory [5, 20] | Plant response rating, Morningglory [5, 21] | Plant response rating, Blackgrass [6, 17] | Blackgrass plant response rating [6, 23] | Blackgrass plant response rating [6, 24] | Blackgrass plant response rating [6, 18] | Blackgrass plant response rating [6, 19] | Plant response rating, Blackgrass [6, 20] | Blackgrass plant response rating [6, 22] | Plant response rating, Velvetleaf [7, 17] | Velvetleaf plant response rating [7, 23] | Velvetleaf plant response rating [7, 18] | Velvetleaf plant response rating [7, 19] | Plant response rating, Velvetleaf [7, 20] | Velvetleaf plant response rating [7, 22] | Plant response rating, Soybean [8, 17] | Soybean plant response rating [8, 23] | Soybean plant response rating [8, 18] | Soybean plant response rating [8, 19] | Plant response rating, Soybean [8, 20] | Plant response rating, Soybean [8, 21] | Plant response rating, Corn [9, 17] | Corn plant response rating [9, 23] | Corn plant response rating [9, 24] | Corn plant response rating [9, 18] | Corn plant response rating [9, 19] | Plant response rating, Corn [9, 20] | Plant response rating, Corn [9, 21] | Corn plant response rating [9, 22] | Plant response rating, Rape [10, 17] | Rape plant response rating [10, 18] | Rape plant response rating [10, 19] | Plant response rating, Rape [10, 20] | Plant response rating, Rape [10, 21] | Rape plant response rating [10, 22] | Plant response rating, Crabgrass [11, 17] | Crabgrass plant response rating [11, 23] | Crabgrass plant response rating [11, 24] | Plant response rating, B. signalgrass [12, 17] | Plant response rating, B. signalgrass [12, 23] | B. signalgrass plant response rating [12, 24] | B. signalgrass plant response rating [12, 18] | B. signalgrass plant response rating [12, 19] | Plant response rating, Wheat [13, 17] | Wheat plant response rating [13, 23] | Wheat plant response rating [13, 18] | Wheat plant response rating [13, 19] | Plant response rating, Wheat [13, 20] | Plant response rating, Wheat [13, 21] | Plant response rating, Redroot pigweed [14, 17] | Redroot pigweed plant response rating [14, 23] | Redroot pigweed plant response rating [14, 18] | Redroot pigweed plant response rating [14, 19] | Plant response rating, Redroot pigweed [14, 20] | Plant response rating, Redroot pigweed [14, 21] | Plant response rating, Wild oats [15, 17] | Wild oats plant response rating [15, 23] | Wild oats plant response rating [15, 18] | Wild oats plant response rating [15, 19] | Plant response rating, Wild oats [15, 20] | Plant response rating, Wild oats [15, 21] | Wild oats plant response rating [15, 22] | Bedstraw plant response rating ([16]; Rate 62 g/ha, scale of 0 to 10 where 0 is no effect and 10 is complete control) | Bedstraw plant response rating ([16]; Rate 125 g/ha, scale of 0 to 10 where 0 is no effect and 10 is complete control) | Plant response rating, Bedstraw ([16]; Rate 250 g/ha, scale 0 to 10 (0 no effect, 10 complete control)) | Plant response rating, Bedstraw ([16]; Rate 500 g/ha, scale of 0 to 10 where 0 is no effect and 10 is complete control)
2: Sugarbeets plant response rating [1, 22] | Plant response rating, Blackgrass [6, 21] | Plant response rating, B. signalgrass [12, 20] | Plant response rating, B. signalgrass [12, 21] | B. signalgrass plant response rating [12, 22] | Wheat plant response rating [13, 22]
3: Plant response rating, Nutsedge [2, 21] | Plant response rating, Cocklebur [3, 21] | Giant foxtail plant response rating [4, 23] | Plant response rating, Morningglory [5, 17] | Morningglory plant response rating [5, 23] | Soybean plant response rating [8, 22]
8: Giant foxtail plant response rating [4, 18] | Giant foxtail plant response rating [4, 22] | Crabgrass plant response rating [11, 19] | Plant response rating, Crabgrass [11, 20]
4: Giant foxtail plant response rating [4, 24] | Crabgrass plant response rating [11, 18]
6: Crabgrass plant response rating [11, 22] | Redroot pigweed plant response rating [14, 22]
